Tests used:
SW620 cells = assay: CellTiter-Blue cell viability, SW620; format: cell-based, human; conditions: SW620, 4 days
Description: Cell viability was measured by CellTiter-Blue® Cell Viability Assay. Cells were seeded in 96 well plates (Corning, cat#353072) and left overnight. Compounds were added at a range of concentrations and plates incubated at 37 °C for 96 hr. Cell titre blue reagent (Promega, Hampshire, UK, cat# G8081) was added (5 μl/well) and incubated for a further 2 h at 37 °C. Fluorescence (579Ex/584Em) was measured using a PHERAstar plate reader.
Supplementary Fig. 10 Determination of the effects of compound 4 on protein synthesis and viability. a HEK293 cells were transfected with protein synthesis reporter expressing bicistonic mRNA with a cap-dependent luciferase reporter and a cap-independent luciferase driven by a viral IRES. Cells were treated with 1 or 10 µM with compound 4 for 24 hr. Luminescence was measured using the Dual-glo luciferase assay (mean ± SEM from 3 biological replicates). b SW620 cells were transfected with a c-Myc-regulated firefly luciferase expression reporter or a constitutive CMV promoter-regulated renilla luciferase reporter. Cells were treated for 24 hr with 1 or 10 µM compound 4 or the […] kinase inhibitor AZD8055 as positive control (mean ± SEM from 3 biological replicates). […]
vs 1 µM AZD8055). c Cell viability measured by cell titre blue assay was performed in SW620 cells treated with compound 4 for 4 days (mean ± SEM from 3 biological replicates). […]

eIF4E = target: T1, eIF4E (Homo sapiens, UniProt P06730); assay: CETSA in intact H1299 cells; format: cell-based; conditions: 6 hrs; for eIF4E stabilisation, eIF4E normalised to vinculin relative to average control (plotted on graph), Average: H1299, 57 °C, control = 1.000
T1 construct: endogenous in cells; host or cells: H1299
Description: (§1) Cells (1.5 × 10^6 cells) were plated into 75 cm^2 flasks and allowed to attached overnight. After treatment with compound 4 or 5 for 6 h, they were harvested by trypsinisation and washed x2 in ice cold PBS. Cells were resuspended in 1 ml of cold PBS supplemented with protease and phosphatase inhibitors (Fisher Scientific, cat#1861281). Resuspended cells were divided into 100 μl aliquots and centrifuged at 300 x g for 3 min at 4 °C. Following centrifugation, 75μl of supernatant was removed and cells resuspended in the remaining volume. Cell suspensions were heated at 40.9, 43.7, 48.1, 52.9, 57.6, 62.4, 67.2, 71.9, 76.3 and 79.1 °C for 3 mins followed by cooling at 20 °C for 3 min[25]. Suspensions were freeze-thawed twice using liquid nitrogen. Soluble fractions were separated from cell debris by centrifuging at 20,000 x g for 30 min at 4 °C. Samples were then analysed by Western Blot.

eIF4E W73F = target: T2, eIF4E W73F (Homo sapiens, UniProt P06730, W73F); assay: CETSA in eIF4E-dTAG model expressing W73F eIF4E; format: cell-based; conditions: intact cells
T2 construct: expressed in transfected cells; host or cells: H1299 eIF4E-dTAG clone C3-1, eIF4E-dTAG depleted with dTAG^V-1 before compound
Description: as §1
(§2) Supplementary Fig. 18. Comparison of compound 4 binding to wild-type or […]
(§3) Cells were treated with dTAGV-1 (1 μM) for 16 hr. Compound 4 (10 μM) or compound 5 (10 μM) was then added for 6 hrs.
(§4) Vi nculin was used for loading control. Blots are from one biological repeat. b […]
(§5) was used as loading control . c Cells were treated with dTAGV -1 (1 μM) for 16 hr.
(§6) Compound 4 (50 μM) or compound 5 (50 μM) was then added for 6 hrs. […]
(§7) following incubation at 48.1 °C. Vinculin was used for loaing control. All blots are […]

eIF4E L85R = target: T3, eIF4E L85R (Homo sapiens, UniProt P06730, L85R); assay: CETSA in eIF4E-dTAG model expressing L85R eIF4E; format: cell-based; conditions: intact cells
T3 construct: expressed in transfected cells; host or cells: H1299 eIF4E-dTAG clone C3-1, eIF4E-dTAG depleted with dTAG^V-1 before compound
Description: as §1, §2, §3, §4, §5, §6, §7

[1] = Aqueous kinetic solubility at pH 7.5 by qNMR; format: physicochemical; conditions: 50 mM HEPES, 100 mM NaCl, 1 mM TCEP
Description: Measurement of aqueous kinetic solubility at pH 7.5
Solubility was measured in 50 mM HEPES, 100 mM NaCl (15% D2O, 85% H2O) in the presence of 1 mM TCEP at pH 7.5. Samples were prepared at 50 mM in DMSO-d6, diluted x 50 into buffer affording nominal concentrations of 1 mM and analysed by 1H quantitative NMR. Spectra were acquired at 300K in 5 mm tubes on a 400 MHz Bruker Avance III HD spectrometer equipped with a BBO-F probe using water suppression (presat/Watergate). A 5 mM sample of 4-hydroxybenzoic acid was used

T1 sequence (P06730 whole entry): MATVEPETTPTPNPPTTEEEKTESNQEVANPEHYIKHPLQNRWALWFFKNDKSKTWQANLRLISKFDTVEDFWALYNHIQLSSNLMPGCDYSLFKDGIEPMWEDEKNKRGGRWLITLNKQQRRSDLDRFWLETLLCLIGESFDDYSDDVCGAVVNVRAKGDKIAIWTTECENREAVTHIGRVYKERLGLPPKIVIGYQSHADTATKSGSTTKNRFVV
T2 sequence (P06730 whole entry W73F): as the sequence (P06730 whole entry) above, with W73F counted along it
T3 sequence (P06730 whole entry L85R): as the sequence (P06730 whole entry) above, with L85R counted along it

Structure (SMILES): CC[C@H](O[C@H](C)CO)c1ccc(-c2ccccc2F)cc1NCCO [Compound 4]
- antiproliferative activity (SW620 cells): lacked on-target antiproliferative activity
- eIF4E stabilisation, eIF4E normalised to vinculin relative to average control (plotted on graph), Average (eIF4E; 0.5 μM): 1.140
- eIF4E stabilisation, eIF4E normalised to vinculin relative to average control (plotted on graph), Average (eIF4E; 1 μM): 1.298
- eIF4E stabilisation, eIF4E normalised to vinculin relative to average control (plotted on graph), Average (eIF4E; 5 μM): 1.771
- eIF4E stabilisation, eIF4E normalised to vinculin relative to average control (plotted on graph), Average (eIF4E; 10 μM): 2.067
- protection of eIF4E from thermal denaturation (eIF4E; H1299 cells, 50 µM): protected eIF4E from thermal denaturation
- EC50 (eIF4E; read-out: EC50, thermal protection of eIF4E (target engagement), intact H1299 cells, 57.6 °C): 2000 nM
- thermal stabilisation of W73F eIF4E (eIF4E W73F): destabilised, rather than stabilised
- thermal stabilisation of L85R eIF4E (eIF4E L85R): showed evidence for compound 4 binding
- Aqueous kinetic solubility (pH7.5) [1]: 400 µM
